This passage reports inhibition and EC50 results from patent US10604512B2, “3-(1H-indol-2-yl)-1H-indazoles and therapeutic uses thereof” (Samumed, LLC, priority 2015, dated 2020).

What all share (format): cell-based
Assay [1] relates to SW480 colon cancer cells. Description: Cell viability assay (CellTiter-Blue) in SW480 colon cancer cells. The note with it: Homo sapiens, 96 h, four days; for inhibition at 10 µM: given where EC50 >10 μM, read-out: percent inhibition at 10 μM; for EC50: CellTiter-Blue. Summed up:
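Approximately 2×10^3 SW480 cells per well are seeded with compound (8 points, threefold steps, top 10 μM) and incubated four days at 37 °C. CellTiter-Blue is then added for about 3 h and fluorescence read. Non-linear regression gives EC50; for values beyond 10 μM, percent inhibition at that concentration is listed.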

Assay [2] has as its system Primary human fibroblasts derived from IPF patients (LL29 cells) treated with TGF-β1. Description: Inhibition of the fibrotic process: αSMA staining in TGF-β1-treated primary human fibroblasts from IPF patients (LL29 cells). To be noted: Fibroblast, 96 h; for EC50: % αSMA-positive LL29 cells, TGF-β1 20 ng/mL, 4 days; for inhibition at 10 µM: given where EC50 >10 μM, αSMA, LL29 cells, TGF-β1, 4 days, read-out: percent inhibition at 10 μM. Put shortly: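 LL29 IPF-patient fibroblasts in 1% FBS stimulated with TGF-β1 (20 ng/mL) and compound (10 μM–1.87 nM, 0.1% DMSO) for 4 days at 37 °C. SYTOX-positive cells excluded; % αSMA-positive cells imaged, normalized to TGF-β1/DMSO wells; EC50 by nonlinear regression, else % inhibition at 10 μM.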

Assay [3] has as its system IL-6. The assay is described as follows: Inhibition of IL-6 in LPS-stimulated THP-1 human monocyte cells (HTRF). To be noted: for EC50: IL-6 inhibition, LPS-stimulated THP-1 cells, HTRF; for inhibition at 10 µM: THP-1, printed beside >10 μM EC50, top concentration 10 μM, meaning not given, read-out: percentage in parentheses after EC50 >10. Put shortly:
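THP-1 cells serum-reduced (1% FBS, 24 h), then 5000 cells/well preincubated 2 h with compound (10-point 1:3 series from 10 μM, 0.1% DMSO) before 500 ng/mL LPS for 22 h at 37 °C. Secreted IL-6 quantified by HTRF 665/620 ratio; DMSO-normalised duplicates fitted to four-parameter EC50; above 10 μM, % inhibition at 10 μM given.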

Molecules are shown by their SMILES.

One may read the EC50 as the midpoint of the concentration-response curve. The low end stands for a more potent agent, the high end for a less potent agent. As to `O=C(Cc1ccccc1)Nc1cncc(-c2ccc3[nH]nc(-c4cc5c(-c6ccncc6)cccc5[nH]4)c3c2)c1` [Compound 122, 2-Phenyl-N-(5-(3-(4-(pyridin-4-yl)-1H-indol-2-yl)-1H-indazol-5-yl)pyridin-3-yl)acetamide], the inhibition at 10 µM came out at 7.8% in assay [1], 0% in assay [2] and 29.6% in assay [3]. Also, the EC50 in assay [1], in assay [2] and in assay [3] was above 10 µM each time.
In the case of `c1ccc(-c2ccc3[nH]nc(-c4cc5c(-c6ccncc6)cccc5[nH]4)c3c2)nc1` [Compound 140, 5-(Pyridin-2-yl)-3-(4-(pyridin-4-yl)-1H-indol-2-yl)-1H-indazole], in assay [1], the inhibition at 10 µM was 37.8%. Also, the concentration giving a half-maximal response (EC50) in assay [1] is above 10 µM; in assay [2], 1.26 µM; in assay [3], 0.136 µM.
For the compound `CS(=O)(=O)NCc1cc(F)cc(-c2cccc3[nH]c(-c4n[nH]c5ccc(-c6ccncc6)cc45)cc23)c1` [Compound 494, N-(3-Fluoro-5-(2-(5-(pyridin-4-yl)-1H-indazol-3-yl)-1H-indol-4-yl)benzyl) methane sulfonamide], the inhibition at 10 µM in assay [1] is 22.3%; in assay [2] it was 10.4%. For the same compound, the results for the EC50 in assay [1], in assay [2] and in assay [3] were above 10 µM, above 10 µM and 2.33 µM, respectively.
On to `O=C(Nc1cncc(-c2ccc3[nH]nc(-c4cc5ncccc5[nH]4)c3c2)c1)C1CCC1` [Compound 525, N-(5-(3-(1H-Pyrrolo[3,2-b]pyridin-2-yl)-1H-indazol-5-yl)pyridin-3-yl) cyclobutanecarboxamide], for which the concentration giving a half-maximal response (EC50) in assay [1] was 0.547 µM; in assay [2], above 10 µM; in assay [3], 0.024 µM. For the same compound, in assay [2], the inhibition at 10 µM was 29.4%.
With `O=C(Nc1cncc(-c2ccc3[nH]nc(-c4cc5c(-c6ccccc6F)cccc5[nH]4)c3c2)c1)C1CCCC1` [Compound 78, N-(5-(3-(4-(2-Fluorophenyl)-1H-indol-2-yl)-1H-indazol-5-yl)pyridin-3-yl) cyclopentanecarboxamide], the inhibition at 10 µM in assay [1] came out at 8.3%; in assay [2], 3.7%; in assay [3], 54.1%. The 50% effective concentration (EC50) in assay [1], in assay [2] and in assay [3] was above 10 µM throughout.
For `O=C(Nc1cncc(-c2ccc3[nH]nc(-c4cc5c(-c6ccncc6)cccc5[nH]4)c3c2)c1)C1CC1` [Compound 132, N-(5-(3-(4-(Pyridin-4-yl)-1H-indol-2-yl)-1H-indazol-5-yl)pyridin-3-yl) cyclopropanecarboxamide], the 50% effective concentration (EC50) in assay [1] came to 0.462 µM; in assay [2], 0.076 µM; in assay [3], 0.109 µM.
Turning to `Fc1ccc(-c2cccc3[nH]c(-c4n[nH]c5ccc(C6=CCNCC6)cc45)cc23)cc1` [Compound 550, 3-(4-(4-Fluorophenyl)-1H-indol-2-yl)-5-(1,2,3,6-tetrahydropyridin-4-yl)-1H-indazole], the concentration for a half-maximal effect (EC50) in assay [1] is 3.9 µM; in assay [2], above 10 µM; in assay [3], above 10 µM. Further, the inhibition at 10 µM amounted to 41.7% in assay [2] and 33.7% in assay [3].
With `c1cnc2cc(-c3n[nH]c4ccc(-c5cncc(CN6CCCCC6)c5)cc34)[nH]c2c1` [Compound 519, 5-(5-(Piperidin-1-ylmethyl)pyridin-3-yl)-3-(1H-pyrrolo[3,2-b]pyridin-2-yl)-1H-indazole], the figures for the EC50 in assay [1], in assay [2] and in assay [3] were 0.106 µM, above 10 µM and 0.097 µM, respectively. Besides, in assay [2], the inhibition at 10 µM amounted to 25.4%.
Consider `CN1CCN(c2cccc3[nH]c(-c4n[nH]c5ccc(-c6cncc(NC(=O)C7CCCC7)c6)cc45)cc23)CC1` [Compound 246, N-(5-(3-(4-(4-Methylpiperazin-1-yl)-1H-indol-2-yl)-1H-indazol-5-yl)pyridin-3-yl)cyclopentanecarboxamide], for which the half-maximal effective concentration (EC50) in assay [1] stood at 2.99 µM; in assay [2] it was 2.56 µM; in assay [3], 0.186 µM.
On to `CC(C)C(=O)Nc1cncc(-c2ccc3[nH]nc(-c4cc5c(-c6ccsc6)cccc5[nH]4)c3c2)c1` [Compound 289, N-(5-(3-(4-(Thiophen-3-yl)-1H-indol-2-yl)-1H-indazol-5-yl)pyridin-3-yl) isobutyramide], for which the half-maximal effective concentration (EC50) in assay [1] is 0.375 µM; in assay [2], 8.4 µM; in assay [3], above 10 µM. Moreover, in assay [3], the inhibition at 10 µM was determined as 48.3%.
Consider `c1ccc2[nH]c(-c3n[nH]c4ccc(-c5cncc(CN6CCCC6)c5)cc34)cc2c1` [Compound 266, 3-(1H-Indol-2-yl)-5-(5-(pyrrolidin-1-ylmethyl)pyridin-3-yl)-1H-indazole], for which the figures for the EC50 in assay [1], in assay [2] and in assay [3] were 1.04 µM, 0.563 µM and 0.233 µM, respectively.
In the case of `CC(C)C(=O)Nc1cncc(-c2ccc3[nH]nc(-c4cc5c(-c6cccnc6)cccc5[nH]4)c3c2)c1` [Compound 93, N-(5-(3-(4-(Pyridin-3-yl)-1H-indol-2-yl)-1H-indazol-5-yl)pyridin-3-yl) isobutyramide], the concentration giving a half-maximal response (EC50) in assay [1] amounted to 2.3 µM; in assay [2] it was 1.22 µM; in assay [3], 0.034 µM.
Regarding `CCCC(=O)Nc1cncc(-c2ccc3[nH]nc(-c4cc5c(-c6ccc(F)cc6)cccc5[nH]4)c3c2)c1` [Compound 45, N-(5-(3-(4-(4-Fluorophenyl)-1H-indol-2-yl)-1H-indazol-5-yl)pyridin-3-yl)butyramide], the results for the inhibition at 10 µM in assay [1] and in assay [3] were 5.3% and 44.6%, respectively. The figures for the concentration for a half-maximal effect (EC50) in assay [1], in assay [2] and in assay [3] were above 10 µM, 5.52 µM and above 10 µM, respectively.
`CN(C)Cc1cncc(-c2ccc3[nH]nc(-c4cc5c(N6CCCCC6)cccc5[nH]4)c3c2)c1` [Compound 181, N,N-Dimethyl-1-(5-(3-(4-(piperidin-1-yl)-1H-indol-2-yl)-1H-indazol-5-yl)pyridin-3-yl)methanamine]: the half-maximal effective concentration (EC50) in assay [1] is 4.16 µM; in assay [2] it was 4.82 µM; in assay [3] it was above 10 µM. Moreover, the inhibition at 10 µM in assay [3] turned out to be 40.7%.
As for `Cc1ncc(-c2ccc3[nH]nc(-c4cc5c(-c6ccncc6)cccc5[nH]4)c3c2)n1C` [Compound 601, 5-(1,2-Dimethyl-1H-imidazol-5-yl)-3-(4-(pyridin-4-yl)-1H-indol-2-yl)-1H-indazole], the figures for the EC50 in assay [1], in assay [2] and in assay [3] were 5.96 µM, 4.19 µM and 4.17 µM, respectively.
In the case of `CC(C)(C)CC(=O)Nc1cncc(-c2ccc3[nH]nc(-c4cc5ccccc5[nH]4)c3c2)c1` [Compound 268, N-(5-(3-(1H-Indol-2-yl)-1H-indazol-5-yl)pyridin-3-yl)-3,3-dimethylbutanamide], the inhibition at 10 µM in assay [1] was determined as 12.4%; in assay [3], 0%. Also, the concentration giving a half-maximal response (EC50) in assay [1] was above 10 µM; in assay [2], 6.89 µM; in assay [3] it was above 10 µM.
`Cc1ccncc1-c1ccc2[nH]nc(-c3cc4c(-c5ccccn5)cccc4[nH]3)c2c1` [Compound 145, 5-(4-Methylpyridin-3-yl)-3-(4-(pyridin-2-yl)-1H-indol-2-yl)-1H-indazole]: the inhibition at 10 µM in assay [1] was determined as 36.7%. The half-maximal effective concentration (EC50) in assay [1] is above 10 µM; in assay [2] it was 2.94 µM; in assay [3], 4.84 µM.
With `Fc1cccc(-c2cccc3[nH]c(-c4n[nH]c5ccc(-c6ccccn6)cc45)cc23)c1` [Compound 28, 3-(4-(3-Fluorophenyl)-1H-indol-2-yl)-5-(pyridin-2-yl)-1H-indazole], the inhibition at 10 µM in assay [1] came to 17.1%. The half-maximal effective concentration (EC50) in assay [1] is above 10 µM; in assay [2], 6.82 µM; in assay [3], 0.102 µM.
Consider `O=C(Cc1ccccc1)Nc1cncc(-c2ccc3[nH]nc(-c4cc5ccccc5[nH]4)c3c2)c1` [Compound 262, N-(5-(3-(1H-Indol-2-yl)-1H-indazol-5-yl)pyridin-3-yl)-2-phenylacetamide], for which the inhibition at 10 µM in assay [1] was 11.4%; in assay [2], 31.8%; in assay [3], 0%. Further, the EC50 in assay [1], in assay [2] and in assay [3] was above 10 µM each time.
Consider `O=C(Nc1cncc(-c2ccc3[nH]nc(-c4cc5c(-c6cccc(F)c6)cccc5[nH]4)c3c2)c1)C1CCCCC1` [Compound 23, N-(5-(3-(4-(3-Fluorophenyl)-1H-indol-2-yl)-1H-indazol-5-yl)pyridin-3-yl) cyclohexanecarboxamide], for which the inhibition at 10 µM in assay [1] came out at 20.2%; in assay [3] it was 34.2%. Also, the EC50 in assay [1] is above 10 µM; in assay [2], 3.29 µM; in assay [3] it was above 10 µM.
For `c1cc(N2CCCCC2)c2cc(-c3n[nH]c4ccc(-c5cncc(OC6CCCCC6)c5)cc34)[nH]c2c1` [Compound 635, 5-(5-(Cyclohexyloxy)pyridin-3-yl)-3-(4-(piperidin-1-yl)-1H-indol-2-yl)-1H-indazole], the inhibition at 10 µM in assay [1] worked out at 45.7%; in assay [3], 22.6%. Besides, the EC50 in assay [1] was above 10 µM; in assay [2], 2.41 µM; in assay [3], above 10 µM.
